Patent US10087219B2, “Human alpha-defensin 5 variant and uses thereof” (priority 2016, dated 2018)
Positions of bridges follow the written chain, without caps; N, C: chain ends. Residues, ends and D or L forms follow the SMILES beside them. No end group written: not given here. *: point of attachment. Myristoyl = CCCCCCCCCCCCCC(=O)*; Lauroyl = CCCCCCCCCCCC(=O)*

Legend:
THP-1 cells = assay: Release of IL-1β mature body from LPS-stimulated THP-1 macrophages (immunoblotting); type: cell-based; settings: LPS 100 ng/ml 3 h, FIG. 4
Description: THP-1 cells were cultured with RPMI-1640 culture media added with 10% fetal calf serum, and then inoculated on 24-well plate during logarithmic phase, 10^6 cells per well, added with PMA with final concentration of 100 nM for stimulating for 12 h so that cell adhered wall.
Media was exchanged with […] added with 10% fetal calf serum, and stood for 24 hours.
The following groups were set: blank group, LPS stimulation group, LPS+5 mM ATP group (positive control group), LPS+HD-5 group, LPS+HD-5Myr group, LPS+HD-5Lau group. 100 ng/ml lipopolysaccharide (LPS) was used or not to perform stimulation for 3 h, then gently washed twice with 1640 culture media, and then added or not with HD-5Myr or HD-5Lau with final concentration of 10 μg/ml and 20 μg/ml, or ATP with final concentration of 5 mM, or HD-5 with final concentration of 100 μg/ml and 200 μg/ml; and supernatant of each group was collected.
The proteins in supernatant in same volume were concentrated, lysed with protein lysis solution, and then release conditions of IL-1β mature body for different groups were compared by immunoblotting method.

MRSA-1 = assay: Antibacterial activity (LD90, optical density growth kinetics) against MRSA-1; type: cell-based, methicillin-resistant Staphylococcus aureus; settings: for LD90: MRSA-1 isolated in clinic, concentration required for killing 90% bacteria, 2 h incubation at 37° C.
Description: (§1) According to measurement of antibacterial activity of antibacterial peptides, the antibacterial potencies of the variants HD-5Myr, HD-Lau and MyrHD-5 of HD-5 as synthesized in Example 2 as well as natural HD-5 were compared.
(§2) The experiments were carried out according to the method for detecting antibacterial activity of antibacterial peptide as reported by Ericksen et al in 2005 (Ericksen B, et al., Antibacterial activity and specificity of the six human {alpha}-defensins. Antimicrob Agents Chemother, 2005).
Bacteria were inoculated on LB agar plate, and placed in 37° C. constant temperature incubator until bacterial colonies grew. Single colony was picked out, inoculated in 5 ml of LB culture media, and shake cultured at constant temperature of 37° C. for 4-6 h. It was then washed with sterile water twice. Optical density at 600 nm was measured with ELIASA, 1 OD600=4×10^8 CFU/ml, and the bacteria to be tested were diluted with sterile water to 2×10^6 CFU/ml.
To a sterile 96-plate, 50 μl of sterile water was added to each well, and then A1 well was added with an antibacterial peptide HD-5 sample diluted to a certain concentration. After being mixed evenly, 50 μl was taken therefrom and added to A2 well, thereby being diluted in multiple proportion manner in order, and 50 μl was sucked out from A6 well and discarded. By using the same method, MyrHD-5, HD-5Myr and HD-5Lau samples were diluted. The control well was 50 μl sterile water. Then, to each well, 50 μl of 2×10^6 CFU/ml bacteria was added, and shake cultured at constant temperature of 37° C. for 2 h. Then, 100 μl of LB culture media with double concentration was added separately. Optical density values at 600 nm were measured every 5 minutes in ELIASA at constant temperature of 37° C.
(§3) The measured optical density value minus the optical density value at time 0, and logarithm thereof was taken. […] According to this linear rule, bactericidal rates for different groups were calculated. […]

E. coli ATCC 25922 = assay: Antibacterial activity (LD90, optical density growth kinetics) against E. coli ATCC 25922; type: cell-based, Escherichia coli; settings: concentration required for killing 90% bacteria, 2 h incubation at 37° C.
Description: as §1, §2
(§4) Bacteria were inoculated on LB agar plate, and placed in 37° C. constant temperature incubator until bacterial colonies grew. […] Optical density at 600 nm was measured with ELIASA, 1 OD600=4×10^8 CFU/ml, and the bacteria to be tested were diluted with sterile water to 2×10^6 CFU/ml.
(§5) To a sterile 96-plate, 50 μl of sterile water was added to each well, and then A1 well was added with an antibacterial peptide HD-5 sample diluted to a certain concentration. […] Optical density values at 600 nm were measured every 5 minutes in ELIASA at constant temperature of 37° C.
as §3

S. aureus ATCC 25923 = assay: Antibacterial activity (LD90, optical density growth kinetics) against S. aureus ATCC 25923; type: cell-based, Staphylococcus aureus; settings: concentration required for killing 90% bacteria, 2 h incubation at 37° C.
Description: as §1, §2, §4, §5, §3

[1] = Micellar structure formation by transmission electron microscopy; type: physicochemical; settings: uranyl acetate staining, FIG. 1
From the text: Small amounts of HD-5, HD-5Myr and HD-5Lau samples were taken and dropped on copper grid used for electron microscope, excessive samples were sucked out with filter paper, after being dried at room temperature, uranyl acetate was used for staining.

human red cells = assay: Hemolysis of human red cells; type: cell-based; settings: 25 μg/ml; 4% human red cells, 37° C., 1 h; 10% Triton X-100 = 100% hemolysis; FIG. 3
Description: The hemolysis effects of antibacterial peptide HD-5 as well as its variants HD-5Myr and HD-5Lau on human red cell were measured.
Fresh human blood sample was collected, heparinized then centrifuged to take red cell layer;
washed with PBS for 3 times;
to EP tube, HD-5 and its variants with final concentrations of 50 μg/ml and 25 μg/ml were added separately; the positive control was added with 10% Triton X-100 in same volume, while the negative control was added with PBS in same volume.
4% human red cells were added separately, incubated at 37° C. for 1 h;
centrifuged, supernatant in same volume was taken and placed in 96-well plate, OD value at 540 nm was measured; by using the positive control as 100% hemolysis, and using the negative control as 0% hemolysis, the hemolysis rate for each well was calculated: Red cell hemolysis rate %=Test well OD value−negative control well OD valuePositive control well OD value−negative control OD×100%

Row | Compound | LD90 (MRSA-1) [µg/mL] | LD90 (E. coli ATCC 25922) [µg/mL] | LD90 (S. aureus ATCC 25923) [µg/mL] | hemolysis rate (human red cells) [%] | other results
1 | Nc1ncnc2c1ncn2[C@@H]1O[C@H](COP(=O)(O)OP(=O)(O)OP(=O)(O)O)[C@@H](O)[C@H]1O [ATP] |  |  |  |  | Release of IL-1β mature body (THP-1 cells; then 5 mM ATP (positive control)): exhibited release of IL-1β mature body
2 | MyrHD-5: 33-residue N-terminally modified HD-5 variant (SEQ ID NO: 3), Gly1 amino group linked to a myristoyl (Myristoyl-GATCYCRTGRCATRESLSGVCEISGRLYRLCCR; disulfide 11-31, 6-21, 4-32) | 1.400 | >12.5 | 6.280 |  | 
3 | Human defensin-5 (ATCYCRTGRCATRESLSGVCEISGRLYRLCCR; disulfide 10-30, 5-20, 3-31; listed as Homo sapiens) [HD-5, the modification template] | 5.850 | 6.691 | >12.5 |  | Release of IL-1β mature body (THP-1 cells; then peptide at 100 μg/ml and 200 μg/ml): could promote the release of IL-1β mature body; LD90 against methicillin-resistant Staphylococcus aureus compared with LD90 against Staphylococcus aureus ATCC 25923 (MRSA-1; MRSA versus S. aureus ATCC 25923): far lower; Formation of micellar structure [1]: micellar structure was not observed
4 | CCCCCCCCCCCCCC(=O)NCCCC[C@H](NC(=O)CNC(=O)[C@H](CCCNC(=N)N)NC(=O)[C@@H]1CSSC[C@H](NC(=O)[C@@H](NC(=O)[C@H](C)N)[C@@H](C)O)C(=O)N[C@@H](Cc2ccc(O)cc2)C(=O)N[C@H]2CSSC[C@@H]3NC(=O)[C@H](C(C)C)NC(=O)CNC(=O)[C@H](CO)NC(=O)[C@H](CC(C)C)NC(=O)[C@H](CO)NC(=O)[C@H](CCC(=O)O)NC(=O)[C@H](CCCNC(=N)N)NC(=O)[C@H]([C@@H](C)O)NC(=O)[C@H](C)NC(=O)[C@H](CSSC[C@H](NC(=O)[C@H](CC(C)C)NC(=O)[C@H](CCCNC(=N)N)NC(=O)[C@H](Cc4ccc(O)cc4)NC(=O)[C@H](CC(C)C)NC(=O)[C@H](CCCNC(=N)N)NC(=O)CNC(=O)[C@H](CO)NC(=O)[C@H]([C@@H](C)CC)NC(=O)[C@H](CCC(=O)O)NC3=O)C(=O)N1)NC(=O)[C@H](CCCNC(=N)N)NC(=O)CNC(=O)[C@H]([C@@H](C)O)NC(=O)[C@H](CCCNC(=N)N)NC2=O)C(N)=O [HD-5Myr] (H-ATCYCRTGRCATRESLSGVCEISGRLYRLCCRGK(Myristoyl)-NH2; disulfide 3-31, 5-20, 10-30) |  |  |  | 6.83 | 
5 | CCCCCCCCCCCC(=O)NCCCC[C@H](NC(=O)CNC(=O)[C@H](CCCNC(=N)N)NC(=O)[C@@H]1CSSC[C@H](NC(=O)[C@@H](NC(=O)[C@H](C)N)[C@@H](C)O)C(=O)N[C@@H](Cc2ccc(O)cc2)C(=O)N[C@H]2CSSC[C@@H]3NC(=O)[C@H](C(C)C)NC(=O)CNC(=O)[C@H](CO)NC(=O)[C@H](CC(C)C)NC(=O)[C@H](CO)NC(=O)[C@H](CCC(=O)O)NC(=O)[C@H](CCCNC(=N)N)NC(=O)[C@H]([C@@H](C)O)NC(=O)[C@H](C)NC(=O)[C@H](CSSC[C@H](NC(=O)[C@H](CC(C)C)NC(=O)[C@H](CCCNC(=N)N)NC(=O)[C@H](Cc4ccc(O)cc4)NC(=O)[C@H](CC(C)C)NC(=O)[C@H](CCCNC(=N)N)NC(=O)CNC(=O)[C@H](CO)NC(=O)[C@H]([C@@H](C)CC)NC(=O)[C@H](CCC(=O)O)NC3=O)C(=O)N1)NC(=O)[C@H](CCCNC(=N)N)NC(=O)CNC(=O)[C@H]([C@@H](C)O)NC(=O)[C@H](CCCNC(=N)N)NC2=O)C(N)=O [HD-5Lau] (H-ATCYCRTGRCATRESLSGVCEISGRLYRLCCRGK(Lauroyl)-NH2; disulfide 3-31, 5-20, 10-30) |  |  |  | 2.24 | 
